From the supplement of paper PMC11061612

Legend:
[1] = compound: CC(=O)c1c(C)c2cnc(Nc3ccc(N4CCNCC4)cn3)nc2n(C2CCCC2)c1=O [Palbociclib]; conditions: max 10 µM
Outline: (§1)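 Cancer cell lines were seeded into 1536-well plates in 7.5 μl medium (DMEM/F12 or RPMI, 10% FBS), held 24 hours at 37°C and 5% CO2, and dosed for 72 hours with final DMSO typically 0.2%. Luminescence from CellTiter-Glo 2.0, scaled between blank-well and DMSO-well means, served as viability. The single-agent IC50 was obtained from dose-response fits with a non-linear mixed effects model, each fit being a two-parameter logistic curve.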

[2] = compound: CC(C)n1c(=O)n(C)c2cnc3cc(F)c(-c4ccc(OCCCN5CCCCC5)nc4)cc3c21 [AZD1390]; conditions: max 0.3 µM
Outline: as §1

[3] = compound: C1CC(C1)(C(=O)[O-])C(=O)[O-].N.N.[Pt+2] [Carboplatin]; conditions: max 10 µM
Outline: as §1

[4] = compound: C[C@@H](Nc1cc(F)cc(F)c1)c1cc(C(=O)N(C)C)cc2c(=O)cc(N3CCOCC3)oc12 [AZD8186]; conditions: max 10 µM
Outline: as §1

[5] = compound: Cc1cc2ncnn2cc1Nc1ncc2c(n1)n(C1CCOCC1)c(=O)n2C [AZD7648]; conditions: max 10 µM
Outline: as §1

[6] = compound: COc1cc(Nc2ncc3c(n2)-c2ccc(Cl)cc2C(c2c(F)cccc2OC)=NC3)ccc1C(=O)O [Alisertib]; conditions: max 10 µM
Outline: as §1

[7] = compound: CC1(C)CCC(CN2CCN(c3ccc(C(=O)NS(=O)(=O)c4ccc(NCC5CCOCC5)c([N+](=O)[O-])c4)c(Oc4cnc5[nH]ccc5c4)c3)CC2)=C(c2ccc(Cl)cc2)C1 [Venetoclax]; conditions: max 1 µM
Outline: as §1

[8] = compound: CC1=C(C(=CC=C1)Cl)NC(=O)C2=CN=C(S2)NC3=CC(=NC(=N3)C)N4CCN(CC4)CCO [Dasatinib]; conditions: max 2 µM
Outline: as §1

[9] = compound: C=CCn1c(=O)c2cnc(Nc3ccc(N4CCN(C)CC4)cc3)nc2n1-c1cccc(C(C)(C)O)n1 [AZD1775]; conditions: max 3 µM
Outline: as §1

[10] = compound: C[C@@H](Oc1cc(-c2cnn(C3CCNCC3)c2)cnc1N)c1c(Cl)ccc(F)c1Cl [Crizotinib]; conditions: max 10 µM
Outline: as §1

[11] = compound: O=c1[nH]cc(F)c(=O)[nH]1 [5-Fluorouracil]; conditions: max 20 µM
Outline: as §1

[12] = compound: CC(=O)Nc1cccc(-n2c(=O)n(C3CC3)c(=O)c3c(Nc4ccc(I)cc4F)n(C)c(=O)c(C)c32)c1 [Trametinib]; conditions: max 1 µM
Outline: as §1

[13] = compound: CN(C)CCCOc1ccc(-c2ccc3ncc4c(c3c2)n(C2CCOCC2)c(=O)n4C)cn1 [AZD0156]; conditions: max 3 µM
Outline: as §1

[14] = compound: CCc1c2c(nc3ccc(O)cc13)-c1cc3c(c(=O)n1C2)COC(=O)[C@]3(O)CC [SN-38]; conditions: max 0.3 µM
Outline: as §1

[15] = compound: NC1(c2ccc(-c3nc4ccn5c(=O)[nH]nc5c4cc3-c3ccccc3)cc2)CCC1 [MK-2206]; conditions: max 10 µM
Outline: as §1

[16] = compound: CCN(CCO)CCCOc1ccc2c(Nc3cc(CC(=O)Nc4cccc(F)c4)[nH]n3)ncnc2c1 [AZD2811]; conditions: max 1 µM
Outline: as §1

[17] = compound: C[C@@H](c1ccc2nccn2c1)n1nnc2ncc(-c3cnn(C)c3)nc21 [Savolitinib]; conditions: max 1 µM
Outline: as §1

[18] = compound: Cc1c2c(nn1C)CSCc1cc(n(C)n1)CSc1cc(c3ccccc3c1)OCCCc1c(C(=O)O)n(C)c3c-2c(Cl)ccc13 [AZD5991]; conditions: max 1 µM
Outline: as §1

[19] = compound: O=C(Nc1ccc2[nH]nc(-c3ccncc3)c2c1)[C@@H]1CCN(CC(=O)N2CCN(c3ccc(-c4ncccn4)cc3)CC2)C1; conditions: max 5 µM
Outline: as §1

[20] = compound: COc1cc2ncnc(Nc3ccc(F)c(Cl)c3)c2cc1OCCCN1CCOCC1 [Gefitinib]; conditions: max 10 µM
Outline: as §1

[21] = compound: COc1cccc(OCCCN)c1-c1cc(Nc2cnc(C#N)cn2)n[nH]1 [Prexasertib]; conditions: max 1 µM
Outline: as §1

[22] = compound: COc1cc([C@@H]2c3cc4c(cc3[C@@H](O[C@@H]3O[C@@H]5CO[C@@H](C)O[C@H]5[C@H](O)[C@H]3O)[C@H]3COC(=O)[C@H]23)OCO4)cc(OC)c1O [Etoposide]; conditions: max 10 µM
Outline: as §1

[23] = compound: CC(=O)O[C@H]1C(=O)[C@@]2(C)[C@H]([C@H](OC(=O)c3ccccc3)[C@]3(O)C[C@H](OC(=O)[C@H](O)[C@@H](NC(=O)c4ccccc4)c4ccccc4)C(C)=C1C3(C)C)[C@]1(OC(C)=O)CO[C@@H]1C[C@@H]2O [Paclitaxel]; conditions: max 3 µM
Outline: as §1

[24] = compound: COc1nnc2ccc(N3CCC(c4ccc(OCCN5CCN(C)C(=O)[C@H]5C)cc4)CC3)nn12 [AZD5153]; conditions: max 1 µM
Outline: as §1

[25] = compound: O=C(c1cc(Cc2n[nH]c(=O)c3ccccc23)ccc1F)N1CCN(C(=O)C2CC2)CC1 [Olaparib]; conditions: max 10 µM
Outline: as §1

[26] = compound: CS(=O)(=O)CCNCc1ccc(-c2ccc3ncnc(Nc4ccc(OCc5cccc(F)c5)c(Cl)c4)c3c2)o1 [Lapatinib]; conditions: max 10 µM
Outline: as §1

[27] = compound: Cn1cnc2c(F)c(Nc3ccc(Br)cc3Cl)c(C(=O)NOCCO)cc21 [Selumetinib]; conditions: max 10 µM
Outline: as §1

[28] = compound: C[C@@H]1COCCN1C2=NC(=NC(=C2)C3(CC3)[S@](=N)(=O)C)C4=C5C=CNC5=NC=C4 [AZD6738]; conditions: max 10 µM
Outline: as §1

[29] = compound: Cc1nc(-c2cn3c(n2)-c2ccc(-c4cnn(C(C)(C)C(N)=O)c4)cc2OCC3)n(C(C)C)n1 [Taselisib]; conditions: max 10 µM
Outline: as §1

[30] = compound: C1CN(CCC1(C(=O)N[C@@H](CCO)C2=CC=C(C=C2)Cl)N)C3=NC=NC4=C3C=CN4 [AZD5363]; conditions: max 10 µM
Outline: as §1

[31] = compound: CN(CC[C@H](CSC1=CC=CC=C1)NC2=C(C=C(C=C2)S(=O)(=O)NC(=O)C3=CC=C(C=C3)N4CCC(CC4)[C@H](C5=CC=CC=C5C6=CC=C(C=C6)Cl)O)S(=O)(=O)C(F)(F)F)CCO [AZD4320]; conditions: max 1 µM
Outline: as §1

[32] = compound: N#Cc1cnc(Nc2cc(NC[C@H]3CNCCO3)c(C(F)(F)F)cn2)cn1 [SRA737]; conditions: max 10 µM
Outline: as §1

[33] = compound: Nc1ccn([C@@H]2O[C@H](CO)[C@@H](O)C2(F)F)c(=O)n1 [Gemcitabine]; conditions: max 0.3 µM
Outline: as §1

[34] = compound: COc1cccc2c1C(=O)c1c(O)c3c(c(O)c1C2=O)C[C@@](O)(C(=O)CO)C[C@@H]3O[C@H]1C[C@H](N)[C@H](O)[C@H](C)O1 [Doxorubicin]; conditions: max 1 µM
Outline: as §1

[35] = compound: CC1=CN2[C@@H](C1)C=NC3=CC(=C(C=C3C2=O)OC)OCCCCCOC4=C(C=C5C(=C4)N=C[C@@H]6CC(=CN6C5=O)C)OC [SG3199]; conditions: max 0.001 µM
Outline: as §1

Row | Cell Line | IC50, cell viability 72 h [1] [µM] | IC50, cell viability 72 h [2] [µM] | IC50, cell viability 72 h [3] [µM] | IC50, cell viability 72 h [4] [µM] | IC50, cell viability 72 h [5] [µM] | IC50, cell viability 72 h [6] [µM] | IC50, cell viability 72 h [7] [µM] | IC50, cell viability 72 h [8] [µM] | IC50, cell viability 72 h [9] [µM] | IC50, cell viability 72 h [10] [µM] | IC50, cell viability 72 h [11] [µM] | IC50, cell viability 72 h [12] [µM] | IC50, cell viability 72 h [13] [µM] | IC50, cell viability 72 h [14] [µM] | IC50, cell viability 72 h [15] [µM] | IC50, cell viability 72 h [16] [µM] | IC50, cell viability 72 h [17] [µM] | IC50, cell viability 72 h [18] [µM] | IC50, cell viability 72 h [19] [µM] | IC50, cell viability 72 h [20] [µM] | IC50, cell viability 72 h [21] [µM] | IC50, cell viability 72 h [22] [µM] | IC50, cell viability 72 h [23] [µM] | IC50, cell viability 72 h [24] [µM] | IC50, cell viability 72 h [25] [µM] | IC50, cell viability 72 h [26] [µM] | IC50, cell viability 72 h [27] [µM] | IC50, cell viability 72 h [28] [µM] | IC50, cell viability 72 h [29] [µM] | IC50, cell viability 72 h [30] [µM] | IC50, cell viability 72 h [31] [µM] | IC50, cell viability 72 h [32] [µM] | IC50, cell viability 72 h [33] [µM] | IC50, cell viability 72 h [34] [µM] | IC50, cell viability 72 h [35] [µM]
1 | Hs-578-T (Breast Carcinoma) | > 10 | > 0.3 | > 10 | 1.71 | > 10 | 3.97 | > 1 | 0.0668 | 0.394 | > 10 | > 20 | > 1 | > 3 | > 0.3 | 5.65 | 0.435 | > 1 | > 1 | > 5 | > 10 | 0.0123 | > 10 | < 0.003 | 0.156 | > 10 | > 10 | > 10 | 1.81 | 2.19 | 2.37 | > 1 | > 10 | > 0.3 | 0.3 | > 0.001
2 | KELLY (Neuroblastoma) | > 10 | > 0.3 | > 10 | > 10 | > 10 | 0.237 | 0.204 | > 2 | 0.0645 | 1.98 | 12.6 | > 1 | > 3 | 0.00725 | > 10 | 0.333 | > 1 | 0.378 | > 5 | > 10 | 0.00118 | 2.53 | 0.0108 | > 1 | > 10 | 7.36 | > 10 | 1.53 | > 10 | > 10 | > 1 | 0.199 | 0.00387 | 0.142 | > 0.001
3 | KURAMOCHI (Ovarian Carcinoma) | > 10 | > 0.3 | > 10 | > 10 | > 10 | > 10 | > 1 | 0.1 | 2.44 | > 10 | > 20 | > 1 | > 3 | 0.171 | > 10 | > 1 | > 1 | > 1 | > 5 | > 10 | 0.0528 | > 10 | 1.67 | 0.14 | > 10 | > 10 | > 10 | 6.97 | > 10 | > 10 | > 1 | 4.48 | > 0.3 | > 1 | > 0.001
4 | LB831-BLC (Bladder Carcinoma) | > 10 | > 0.3 | > 10 | > 10 | > 10 | > 10 | > 1 | > 2 | 2.14 | > 10 | > 20 | > 1 | > 3 | 0.0458 | > 10 | > 1 | > 1 | > 1 | > 5 | > 10 | > 1 | > 10 | 0.0691 | > 1 | > 10 | > 10 | > 10 | > 10 | 5.82 | > 10 | > 1 | > 10 | 0.202 | 0.821 | > 0.001
5 | LS-180 (Colorectal Carcinoma) | 9.72 | > 0.3 | > 10 | > 10 | > 10 | 7.41 | > 1 | > 2 | 2.03 | > 10 | > 20 | 0.0744 | > 3 | 0.0211 | > 10 | > 1 | > 1 | > 1 | 2.85 | > 10 | 0.103 | 1.92 | 0.0305 | 0.673 | > 10 | > 10 | 2.68 | 3.42 | 2.16 | > 10 | > 1 | > 10 | 0.0118 | 0.168 | > 0.001
